Experimental data taken from patent publication US8372978B2, “Salts of methyl 2-((R)-(3-chlorophenyl)((R)-1-((S)-2-(methylamino)-3-((R)-tetrahydro-2H-pyran-3-yl)propylcarbamoyl)piperidin-3-yl)methoxy)ethylcarbamate” (Vitae Pharmaceuticals, Inc., priority 2009, dated 2013).
Where a name gives a salt, the structure may show the parent alone. Blank lines part the entries; values can stand above or below the compound they belong to.

How the values were obtained:
[1] = Pharmacokinetics after oral administration, plasma by LC/MS/MS, rat; format: in vivo; conditions: for AUC(0-t) / DNAUC0-t / Cmax: oral, 10 mg/kg (as salt), 0.5% methylcellulose in water
Procedure: IV formulations were prepared in 1% DMSO in sterile saline. PO formulations were prepared in 0.5% methylcellulose in water, unless otherwise indicated. After compound administration, plasma samples were obtained through 24 hours post-dosing from each animal using K2EDTA as the anticoagulant. Plasma samples were treated with two volumes of acetonitrile containing an internal standard (ritanserin). Samples were centrifuged at 4,000 rpm for 10 minutes at 25° C. Ten microliters of the supernatant was analyzed using LC/MS/MS. Standard curves are prepared for each species and range from 1.0 to 500 ng/mL The compound of Formula (I) and the internal standard were separated by reverse-phase HPLC using a gradient mobile phase and detected by +APCI monitoring the transitions m/z 525→327 (compound of Formula (I)) and m/z 478→193 (ritanserin).

[2] = Pharmacokinetics after oral administration, plasma by LC/MS/MS, dog; format: in vivo; conditions: for DNAUC0-t / AUC(0-t) / Cmax: oral; for AUC(0-t) / Cmax: plasma
Procedure: (§1) IV formulations were prepared in 1% DMSO in sterile saline. PO formulations were prepared in 0.5% methylcellulose in water, unless otherwise indicated. After compound administration, plasma samples were obtained through 24 hours post-dosing from each animal using K2EDTA as the anticoagulant. Plasma samples were treated with two volumes of acetonitrile containing an internal standard (ritanserin). Samples were centrifuged at 4,000 rpm for 10 minutes at 25° C. Ten microliters of the supernatant was analyzed using LC/MS/MS.

[3] = Pharmacokinetics after oral administration, plasma by LC/MS/MS, monkey; format: in vivo; conditions: for DNAUC0-t / AUC(0-t) / Cmax: oral, 0.5% methylcellulose in water; for AUC(0-t) / Cmax: plasma
Procedure: as §1

Water solubility = format: physicochemical
Hygroscopicity = format: physicochemical
[4] = 1 mg/kg (as salt), 2% DMSO in water
[5] = 2 mg/kg (as salt), 0.5% methylcellulose in water

AUC(0-t) [1]: 477 ng·h/mL
DNAUC0-t [1]: 48 ng·h/mL
Cmax ([1]; plasma): 156 ng/mL
DNAUC0-t [2, 4]: 458 ng·h/mL
AUC(0-t) [2, 4]: 458 ng·h/mL
Cmax [2, 4]: 286 ng/mL
DNAUC0-t ([3]; 2 mg/kg (as salt)): 191 ng·h/mL
AUC(0-t) ([3]; 2 mg/kg (as salt)): 381 ng·h/mL
Cmax ([3]; 2 mg/kg (as salt)): 145 ng/mL
SMILES: CN[C@H](CNC(=O)N1CCC[C@@H]([C@@H](OCCNC(=O)OC)c2cccc(Cl)c2)C1)C[C@H]1CCCOC1.O=C(O)/C=C/C(=O)O [Fumarate, methyl 2-((R)-(3-chlorophenyl)((R)-1-((S)-2-(methylamino)-3-((R)-tetrahydro-2H-pyran-3-yl)propylcarbamoyl)piperidin-3-yl)methoxy)ethylcarbamate fumaric acid salt]

in vivo bioavailability (in words) [1]: good in vivo bioavailability
DNAUC0-t [1]: 68 ng·h/mL
Cmax ([1]; plasma): 238 ng/mL
AUC(0-t) ([1]; plasma, read-out: AUC0-t): 681 ng·h/mL
in vivo bioavailability (in words) [2]: good in vivo bioavailability
DNAUC0-t [2, 5]: 447 ng·h/mL
AUC(0-t) [2, 5]: 895 ng·h/mL
Cmax [2, 5]: 294 ng/mL
in vivo bioavailability (in words) [3]: good in vivo bioavailability
DNAUC0-t ([3]; 3 mg/kg (as salt)): 269 ng·h/mL
AUC(0-t) ([3]; 3 mg/kg (as salt)): 807 ng·h/mL
Cmax ([3]; 3 mg/kg (as salt)): 266 ng/mL
water solubility (in words) (Water solubility): good water solubility
solubility (Water solubility; water, temperature not stated): 65 ± 5 mg/mL
hygroscopicity (in words) (Hygroscopicity): sufficiently non-hygroscopic
SMILES: CN[C@H](CNC(=O)N1CCC[C@@H]([C@@H](OCCNC(=O)OC)c2cccc(Cl)c2)C1)C[C@H]1CCCOC1 [Mucate, methyl 2-((R)-(3-chlorophenyl)((R)-1-((S)-2-(methylamino)-3-((R)-tetrahydro-2H-pyran-3-yl)propylcarbamoyl)piperidin-3-yl)methoxy)ethylcarbamate mucic acid salt (Form B)]
